Measured values from US20080064027A1, “TEL/Etv6-mediated inhibition of cell proliferation” (priority 2002, published 2008).
Like-named read-outs stand apart in the source and are kept apart here.

Assays:
[1] = test system: Stat3 transcriptional activity; assay: APRE-driven luciferase reporter assay; format: cell-based; conditions: for Relative Luciferase Activity: 24 hours, control = 1; for Stat3-dependent transcription of luciferase, increase over control: Stat3-ER-expressing A375, without TEL siRNA
From the text: Luciferase assays are used to verify that the Stat3-ER construct is transcriptionally active. For this purpose, a luciferase reporter gene driven by the acute-phase response element (APRE) of the alpha 2-macroglobulin gene, a target for Stat1 and Stat3, was used.
Cells (2×10^6 cells/6 well dish) were transfected with a reporter plasmid containing four copies of acute phase responsible element (APRE) upstream of the minimal junB promoter linked to the luciferase gene (T Hirano, EMBO Journal, 1996, 15, 3651-3658), together with the internal control plasmid pRL-SV40 from Promega (Madison, Wis.). Twenty-four hours after the transfection, cells were either left unstimulated or stimulated with OSM (PeproTechEC, London, United Kingdom), 4-hydroxytamoxifen (4HT; Sigma, St. Louis, Mo.) or a combination of 4HT/OSM for 24 hours. The preparation of cell extracts and measurement of luciferase activities were carried out using the Dual-Luciferase reporter assay system from Promega (Madison, Wis.) in an Autolumat LB 953 (Berthold Technologies, Wildbad, Germany). Changes in firefly luciferase activity were expressed relative to Renilla luciferase activity in the same sample.

[2] = molecular target: T1, Stat3-ER (UniProt P19785+P40763, G525R); assay: Stat3 oligonucleotide DNA binding assay on nuclear extracts; format: cell-based
T1 construct: expressed in transfected cells
T1 sequence (P40763+P19785 fused P19785:G525R): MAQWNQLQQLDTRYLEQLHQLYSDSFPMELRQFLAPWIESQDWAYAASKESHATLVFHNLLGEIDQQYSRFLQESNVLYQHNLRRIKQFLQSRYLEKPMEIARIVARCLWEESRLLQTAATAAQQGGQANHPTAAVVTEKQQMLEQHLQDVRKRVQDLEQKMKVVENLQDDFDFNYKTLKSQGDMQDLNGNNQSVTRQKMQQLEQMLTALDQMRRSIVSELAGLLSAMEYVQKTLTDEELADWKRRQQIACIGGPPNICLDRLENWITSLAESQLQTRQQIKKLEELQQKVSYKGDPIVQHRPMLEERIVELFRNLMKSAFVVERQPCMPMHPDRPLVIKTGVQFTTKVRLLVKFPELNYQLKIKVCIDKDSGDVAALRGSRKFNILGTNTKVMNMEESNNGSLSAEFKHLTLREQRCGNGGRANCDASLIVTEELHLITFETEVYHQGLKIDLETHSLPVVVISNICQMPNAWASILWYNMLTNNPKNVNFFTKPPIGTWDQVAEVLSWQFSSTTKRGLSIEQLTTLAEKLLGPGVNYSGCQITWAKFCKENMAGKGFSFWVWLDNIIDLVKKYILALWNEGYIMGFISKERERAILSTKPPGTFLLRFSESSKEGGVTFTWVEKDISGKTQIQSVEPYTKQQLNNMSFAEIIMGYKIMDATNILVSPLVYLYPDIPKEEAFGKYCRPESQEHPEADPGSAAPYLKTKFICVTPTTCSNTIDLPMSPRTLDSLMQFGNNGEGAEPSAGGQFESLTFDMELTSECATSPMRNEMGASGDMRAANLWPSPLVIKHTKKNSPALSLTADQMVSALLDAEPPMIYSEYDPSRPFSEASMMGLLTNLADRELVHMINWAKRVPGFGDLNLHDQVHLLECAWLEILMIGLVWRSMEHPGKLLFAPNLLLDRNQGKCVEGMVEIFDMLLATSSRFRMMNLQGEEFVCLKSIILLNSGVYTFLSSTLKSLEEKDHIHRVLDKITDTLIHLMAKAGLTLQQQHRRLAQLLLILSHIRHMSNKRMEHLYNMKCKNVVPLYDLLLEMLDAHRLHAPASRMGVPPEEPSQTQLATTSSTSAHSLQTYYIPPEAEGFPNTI
Procedure: DNA binding assays were carried out using cells stimulated with 4HT (1 microM) for 0, 0.3, 1, 2, 4 and 24 hours. […] Samples were centrifuged and the pellet was washed two more times with binding buffer. Proteins were eluted from beads by boiling in 25 microliters of 2× loading buffer (1% DTT, 4% SDS, 20% Glycerol, 0.02% Bromophenol Blue, 0.25 M TrisHCl 1M 6.8 pH) and SDS-PAGE was performed.
DNA binding of Stat3-ER and endogenous Stat3 was monitored by performing Western analysis on the oligonucleotide-bound proteins.

[3] = test system: A375-Stat3-ER cells; conditions: for effect on cell cycle profile: A375-Stat3-ER cells
Procedure: In brief, cells were harvested at the indicated times (24, 48 and 72 h) washed three times with ice-cold PBS and resuspended in propidium iodide buffer (1 mM sodium citrate (pH 4.0), 1.5 mM NaCl, 5 mM EDTA, 5 mM EGTA, 0.1% NP40, 4 mg/ml propidium iodide and 80 mg/ml of RNase A). After 30 min incubation in the dark on ice, cell cycle distribution was measured with a Becton Dickinson FACS can flow cytometer.

[4] = test system: A375-Stat3-ER cells; conditions: for reduction of A375-Stat3ER cell number: 3 days
Procedure: In order to evaluate the role of Stat3 in A375 cell proliferation, A375-Stat3-ER cells were grown in the presence of OSM or 4HT and cell number determined over 3 days.

[5] = 24 h, 4HT 1 microM, OSM 100 ng/ml, control 1.48
[6] = 48 h, 4HT 1 microM, OSM 100 ng/ml, control 4.33
[7] = 72 h, 4HT 1 microM, OSM 100 ng/ml, control 7.83
[8] = 4HT 1 microM, Stat3-ER expressing A375 cells

## oncostatin M [OSM]
[1]; A375 cells
  activation of Stat3 transcriptional activity among IL-6 family members tested (IL-6, LIF): most potent activator
[1]; OSM 1 ng/ml, Stat3-ER expressing A375 cells
  Relative Luciferase Activity: 3
[1]; OSM 10 ng/ml, Stat3-ER expressing A375 cells
  Relative Luciferase Activity: 9
[1]; OSM 100 ng/ml, Stat3-ER expressing A375 cells
  Relative Luciferase Activity: 18
[1]
  Stat3-dependent transcription of luciferase, increase over control: about 9 fold
[2]; cells pretreated with 4HT for 24 hrs
  endogenous Stat3 DNA binding after OSM addition: could be detected 15 min after addition of OSM and decreased after 1 hr of treatment
[2]; cells pretreated with 4HT for 24 hrs, remained bound for the entire course
  Stat3-ER DNA binding in the presence of OSM: enhanced
[3]
  effect on cell cycle profile: little effect
[4]; 0 h (start of treatment)
  Number of Cells: 0.8 ×10^5
[4]; 4HT 1 microM, OSM 100 ng/ml
  reduction of A375-Stat3ER cell number: about 40%
[4]; [5]
  Number of Cells: 1.15 ×10^5
[4]; [6]
  Number of Cells: 2.58 ×10^5
[4]; [7]
  Number of Cells: 4.35 ×10^5

## CCC(=C(c1ccc(O)cc1)c1ccc(OCCN(C)C)cc1)c1ccccc1 [4HT, 4-hydroxytamoxifen, reference compound]
[1]; [8]
  Relative Luciferase Activity: 29
  stimulation of transcription from the APRE: more efficiently than 100 ng/ml OSM
[1]
  Stat3-dependent transcription of luciferase, increase over control: about 6 fold
[2]; 4HT 1 microM
  earliest time at which Stat3ER-DNA binding was detected after stimulation: 20 min
  time of maximum measured Stat3ER-DNA binding: 24 h
[2]; 4HT 1 microM, Stat3-ER-expressing A375 cells
  Stat3-ER nuclear translocation and DNA binding to Stat3-specific oligonucleotide probe: induced nuclear translocation and DNA-binding
[3]; 24 h
  Apoptotic cells: <1%
  G1 (change in percentage of cells): +1%
  G2/M (change in percentage of cells): +2%
  S (change in percentage of cells): −3%
[3]; 48 h
  Apoptotic cells: <1%
  G2/M (change in percentage of cells): −6%
  S (change in percentage of cells): +1%
[3]; 72 h
  G1 (change in percentage of cells): −1%
  G2/M (change in percentage of cells): +1%
  S (change in percentage of cells): 0%
[3]; 72 h (3 days)
  Apoptotic cells: <1%
[3]
  effect on cell cycle profile: only marginally affected
[3]; A375 Stat3-ER cells
  entry into S phase after release of cells synchronized in G1: delayed relative to control cells
[4]; 0 h (start of treatment)
  Number of Cells: 0.8 ×10^5
[4]; 4HT 1 microM, OSM 100 ng/ml
  reduction of A375-Stat3ER cell number: about 40%
[4]; [5]
  Number of Cells: 1.49 ×10^5
[4]; [6]
  Number of Cells: 3.60 ×10^5
[4]; [7]
  Number of Cells: 4.44 ×10^5
